Measurements: ChEMBL document CHEMBL1201862, “PubChem BioAssay data set” (2004)
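Compound exposure: 48 hours, 5 concentrations, 96-well plates. Abbreviation: GI50, concentration required for 50% inhibition of growth.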 The source made the active and inactive calls. Cut-off read from the data, not from the text of the source: active = GI50 up to about 1.1 µM and inactive = higher.

Assays:
Assay in all cases: NCI anticancer screen, dose series, 48 h
CAKI-1 = tested on: CAKI-1
COLO 205 = tested on: COLO 205
DMS-114 = tested on: DMS-114
DMS-273 = tested on: DMS-273
HCC 2998 = tested on: HCC 2998
HCT-116 = tested on: HCT-116
HCT-15 = tested on: HCT-15
HL-60 = tested on: HL-60
HOP-18 = tested on: HOP-18
HOP-62 = tested on: HOP-62
HOP-92 = tested on: HOP-92
HT-29 = tested on: HT-29
KM-20L2 = tested on: KM-20L2
KM12 = tested on: KM12
LOX IMVI = tested on: LOX IMVI
LXFL 529 = tested on: LXFL 529
M14 = tested on: M14
M19-MEL = tested on: M19-MEL
Malme-3M = tested on: Malme-3M
NCI-H226 = tested on: NCI-H226
NCI-H460 = tested on: NCI-H460
OVCAR-3 = tested on: OVCAR-3
OVCAR-4 = tested on: OVCAR-4
OVCAR-5 = tested on: OVCAR-5
OVCAR-8 = tested on: OVCAR-8
SF-295 = tested on: SF-295
SK-MEL-2 = tested on: SK-MEL-2
SN12C = tested on: SN12C
SNB-19 = tested on: SNB-19
SR = tested on: SR
SW-620 = tested on: SW-620
UACC-257 = tested on: UACC-257
UO-31 = tested on: UO-31
786-0 = tested on: 786-0
A498 = tested on: A498
A549 = tested on: A549
ACHN = tested on: ACHN
BT-549 = tested on: BT-549
CCRF-CEM = tested on: CCRF-CEM
DU-145 = tested on: DU-145
EKVX = tested on: EKVX
Hs-578T = tested on: Hs-578T
IGROV-1 = tested on: IGROV-1
K562 = tested on: K562
MCF7 = tested on: MCF7
MDA-MB-231 = tested on: MDA-MB-231
MDA-MB-435 = tested on: MDA-MB-435
MDA-N = tested on: MDA-N
MOLT-4 = tested on: MOLT-4
NCI-H23 = tested on: NCI-H23
NCI-H522 = tested on: NCI-H522
NCI/ADR-RES = tested on: NCI/ADR-RES
PC-3 = tested on: PC-3
RPMI-8226 = tested on: RPMI-8226
RXF 393 = tested on: RXF 393
SF-268 = tested on: SF-268
SF-539 = tested on: SF-539
SK-MEL-28 = tested on: SK-MEL-28
SK-MEL-5 = tested on: SK-MEL-5
SK-OV-3 = tested on: SK-OV-3
SNB-75 = tested on: SNB-75
T47D = tested on: T47D
TK-10 = tested on: TK-10
U-251 = tested on: U-251
UACC-62 = tested on: UACC-62

Measured: GI50

COc1ccc(C(=O)C(C(=O)CCC(=O)Nc2ccc(C)c(C)c2)c2ccc(OC)cc2)cc1 (stereo unspecified)
> 100 µM: HCT-15
inactive: CAKI-1 > 100 µM | COLO 205 > 100 µM | DMS-114 > 100 µM | DMS-273 > 100 µM | HCC 2998 > 100 µM | HCT-116 > 100 µM | HL-60 > 100 µM | HOP-18 > 100 µM | HOP-62 > 100 µM | HOP-92 48.9 µM | HT-29 > 100 µM | KM-20L2 > 100 µM | KM12 > 100 µM | LOX IMVI > 100 µM | LXFL 529 > 100 µM | M14 > 100 µM | M19-MEL > 100 µM | Malme-3M > 100 µM | NCI-H226 > 100 µM | NCI-H460 > 100 µM | OVCAR-3 > 100 µM | OVCAR-4 > 100 µM | OVCAR-5 > 100 µM | OVCAR-8 > 100 µM | SF-295 > 100 µM | SK-MEL-2 > 100 µM | SN12C > 100 µM | SNB-19 > 10 µM | SR > 100 µM | SW-620 > 100 µM | UACC-257 > 100 µM | UO-31 > 100 µM

COc1cc(C2S/C(=C/c3ccccc3)C(=O)N2c2ccc([N+](=O)[O-])cc2)cc(OC)c1OC (stereo unspecified)
inactive: 786-0 > 100 µM | A498 73.1 µM | A549 > 96.4 µM | ACHN > 21 µM | BT-549 44.9 µM | CAKI-1 97.1 µM | CCRF-CEM 32.6 µM | COLO 205 26.1 µM | DU-145 > 41.2 µM | EKVX 39.6 µM | HCC 2998 > 100 µM | HCT-116 > 64.9 µM | HL-60 40.6 µM | HOP-62 92.7 µM | HOP-92 > 100 µM | HT-29 > 39.6 µM | Hs-578T > 100 µM | IGROV-1 > 20.6 µM | K562 3.68 µM | KM12 28.6 µM | LOX IMVI 19 µM | M14 26.1 µM | MCF7 58.3 µM | MDA-MB-231 > 100 µM | MDA-MB-435 18 µM | MDA-N > 56.8 µM | MOLT-4 47.3 µM | Malme-3M > 100 µM | NCI-H226 58.9 µM | NCI-H23 > 100 µM | NCI-H460 48 µM | NCI-H522 > 63.5 µM | NCI/ADR-RES > 80.4 µM | OVCAR-3 > 78 µM | OVCAR-4 45.9 µM | OVCAR-5 15.5 µM | OVCAR-8 > 100 µM | PC-3 > 100 µM | RPMI-8226 > 57.7 µM | RXF 393 > 100 µM | SF-268 > 83.9 µM | SF-295 58.1 µM | SF-539 > 100 µM | SK-MEL-28 > 100 µM | SK-MEL-2 > 91.4 µM | SK-MEL-5 25.6 µM | SK-OV-3 > 100 µM | SN12C > 90.6 µM | SNB-19 > 100 µM | SNB-75 > 100 µM | SR 9.27 µM | SW-620 > 100 µM | T47D 40.9 µM | TK-10 > 100 µM | U-251 > 100 µM | UACC-257 60.7 µM | UACC-62 3.91 µM | UO-31 47 µM
26.4 µM: HCT-15

CC(=O)OC1COC(n2c(-c3ccc(Cl)cc3)cc(-c3ccccc3)c(C#N)c2=S)C(OC(C)=O)C1OC(C)=O (stereo unspecified)
active: Hs-578T 0.552 µM
inactive: 786-0 12.5 µM | A498 17.4 µM | A549 13.4 µM | ACHN 17.5 µM | BT-549 2.06 µM | CAKI-1 19.7 µM | CCRF-CEM 31.8 µM | COLO 205 18.3 µM | DU-145 13.9 µM | EKVX 58.5 µM | HCC 2998 31.6 µM | HCT-116 5.52 µM | HL-60 37.7 µM | HOP-62 9.23 µM | HOP-92 12.9 µM | HT-29 26.2 µM | IGROV-1 18.2 µM | K562 12.2 µM | KM12 14.7 µM | LOX IMVI 3.58 µM | M14 17.2 µM | MCF7 8.43 µM | MDA-MB-231 2.88 µM | MDA-MB-435 7.19 µM | MDA-N 22.1 µM | MOLT-4 50.1 µM | Malme-3M 49.9 µM | NCI-H226 16.3 µM | NCI-H23 12.2 µM | NCI-H460 19.1 µM | NCI-H522 40.5 µM | NCI/ADR-RES 14.1 µM | OVCAR-3 6.38 µM | OVCAR-4 2.92 µM | OVCAR-5 32.7 µM | OVCAR-8 5.06 µM | PC-3 14.5 µM | RPMI-8226 29.9 µM | RXF 393 12.9 µM | SF-268 9.44 µM | SF-295 14.7 µM | SF-539 4.42 µM | SK-MEL-28 > 28.9 µM | SK-MEL-2 12 µM | SK-MEL-5 8.51 µM | SK-OV-3 28.2 µM | SN12C 9.25 µM | SNB-19 31 µM | SNB-75 15.7 µM | SR 29.2 µM | SW-620 41.1 µM | T47D 14.1 µM | TK-10 31.6 µM | U-251 3.78 µM | UACC-257 41.6 µM | UACC-62 19.1 µM | UO-31 17.6 µM
23.4 µM: HCT-15
